Assay results published in patent publication US11771086B2, “Pest control composition including novel iminopyridine derivative” (priority 2012, dated 2023).

Key:
Assay type in all cases: in vivo
[1] = tested on: Trigonotylus caelestialium; assay: Reference Test Example 10 Pest control test of Trigonotylus caelestialium (dipping treatment); conditions: 72 h
Method: After an air drying process, the wheat seedling leaves and stems were placed into a glass tube, and two second instar larvae of Trigonotylus coelestialium were released to the same glass tube. After the larvae were released, the tube was lidded to leave the larvae to stand in a thermostatic chamber at 25° C. In order to supply water to the wheat during the test, water was given to the wheat from the bottom of the glass tube. […] Test in triplicate.

[2] = tested on: Lissorhoptrus oryzophilus; assay: Reference Test Example 17 Pest control test of Lissorhoptrus oryzophilus (soil drench, single agent); conditions: throughput of 0.1 mg/seedling, adults, three days after the release
Source text: Two days after the treatment, five adults of Lissorhoptrus oryzophilus were each released thereto. […] Test in duplicate.

Callosobruchus chinensis = tested on: Callosobruchus chinensis
Method: A compound of Formula (I) and the insecticide indicated below, prepared in predetermined concentrations using acetone, were separately topically applied to the back of the same adult Callosobruchus chinensis. […] The test was performed in duplicate. Insect mortality (%)={number of dead insects/(number of survived insects+number of dead insects)}×100
(A: 100−(insect mortality for treatment with only Compound P212)
B: 100−(insect mortality for treatment with only the insecticide fipronil or imidacloprid))
Method for Judging Synergistic Effects

Aphis gossypii = assay: Reference Test Example 3 Pest control test of Aphis gossypii (foliar treatment, single agent); conditions: Aphis gossypii, foliar, 72 h
Method: After an air drying process, first instar larvae were released thereto. Thereafter, the larvae were left to stand in a thermostatic chamber (16 hours of light period-8 hours of dark period) at 25° C. […] Test in duplicate. Mortality (%)={number of dead larvae/(number of survived larvae+number of dead larvae)}×100

Plautia crossota stali = assay: Reference Test Example 11 Pest control test of Plautia crossota stali (sprayed young apple fruit); conditions: foliar, 144 h
Source text: After an air drying process, the young fruit was placed into a plastic cup, and two adults of Plautia crossota stali were released thereto. […] Mortality of adults (%)={number of dead adults/(number of survived adults+number of dead adults)}×100

[3] = tested on: Frankliniella occidentalis; assay: Reference Test Example 9 Pest control test of Frankliniella occidentalis (foliar treatment, single agent); conditions: 72 h
Method: After an air drying process, first instar larvae were released to the leaf disk. Thereafter, the larvae were left to stand in a thermostatic chamber (16 hours of light period-8 hours of dark period) at 25° C. […] Test in duplicate. Mortality of larvae (%)={number of dead larvae/(number of survived larvae+number of dead larvae)}×100

Laodelphax striatella = assay: Reference Test Example 4 Pest control test of Laodelphax striatella (foliar treatment, single agent); conditions: Laodelphax striatellus, 72 h
Source text: (§1) After an air drying process, second instar larvae were released thereto. […] Test in duplicate.

Nilaparvata lugens = assay: Reference Test Example 5 Pest control test of Nilaparvata lugens (foliar treatment, single agent); conditions: 144 h
Source text: as §1

O=C(N=c1ccccn1Cc1ccc(Cl)nc1)C(F)(F)F [Compound P212, N-[1-((6-chloropyridin-3-yl)methyl)pyridin-2(1H)-ylidene]-2,2,2-trifluoroacetamide]
≥ 60%: mortality at 50 ppm (Plautia crossota stali)
20%: Theoretical value by Colby's equation (Callosobruchus chinensis; Callosobruchus chinensis, single agent 0.2 ng/head (other component 0)) | Mortality of single agent against Callosobruchus chinensis (Callosobruchus chinensis; single agent 0.2 ng/head, topical, one day)
≥ 80%: mortality at 50 ppm [1] | mortality [2] | mortality at 100 ppm (Aphis gossypii) | mortality at 500 ppm [3] | mortality at 100 ppm (Laodelphax striatella) | mortality at 100 ppm (Nilaparvata lugens)
